Measurements as given in article PMC8791611 (Science Advances, 2022).

Key:
BmrA [1] = molecular target: T1, BmrA (Bacillus subtilis, UniProt O06967, E504A); assay: cryo-EM structure; format: binding
T1 sequence (O06967 1-589 E504A): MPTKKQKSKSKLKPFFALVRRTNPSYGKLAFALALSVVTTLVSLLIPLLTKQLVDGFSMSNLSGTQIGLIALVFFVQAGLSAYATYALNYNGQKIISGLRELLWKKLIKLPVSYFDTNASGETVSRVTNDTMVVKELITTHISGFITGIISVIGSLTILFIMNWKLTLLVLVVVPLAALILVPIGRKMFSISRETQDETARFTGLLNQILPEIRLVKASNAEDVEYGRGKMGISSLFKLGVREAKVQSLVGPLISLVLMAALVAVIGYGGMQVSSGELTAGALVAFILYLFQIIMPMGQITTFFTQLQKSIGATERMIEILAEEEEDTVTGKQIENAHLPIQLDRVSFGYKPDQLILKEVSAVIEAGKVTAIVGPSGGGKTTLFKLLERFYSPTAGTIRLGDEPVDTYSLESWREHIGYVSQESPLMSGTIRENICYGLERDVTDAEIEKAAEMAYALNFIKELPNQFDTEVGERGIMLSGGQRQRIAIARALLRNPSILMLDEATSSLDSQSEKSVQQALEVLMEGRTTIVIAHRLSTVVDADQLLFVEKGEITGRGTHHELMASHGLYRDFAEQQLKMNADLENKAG

BmrA [2] = molecular target: T2, BmrA (Bacillus subtilis, UniProt O06967); assay: intrinsic fluorescence binding, purified WT BmrA in DDM
T2 sequence (O06967 1-589): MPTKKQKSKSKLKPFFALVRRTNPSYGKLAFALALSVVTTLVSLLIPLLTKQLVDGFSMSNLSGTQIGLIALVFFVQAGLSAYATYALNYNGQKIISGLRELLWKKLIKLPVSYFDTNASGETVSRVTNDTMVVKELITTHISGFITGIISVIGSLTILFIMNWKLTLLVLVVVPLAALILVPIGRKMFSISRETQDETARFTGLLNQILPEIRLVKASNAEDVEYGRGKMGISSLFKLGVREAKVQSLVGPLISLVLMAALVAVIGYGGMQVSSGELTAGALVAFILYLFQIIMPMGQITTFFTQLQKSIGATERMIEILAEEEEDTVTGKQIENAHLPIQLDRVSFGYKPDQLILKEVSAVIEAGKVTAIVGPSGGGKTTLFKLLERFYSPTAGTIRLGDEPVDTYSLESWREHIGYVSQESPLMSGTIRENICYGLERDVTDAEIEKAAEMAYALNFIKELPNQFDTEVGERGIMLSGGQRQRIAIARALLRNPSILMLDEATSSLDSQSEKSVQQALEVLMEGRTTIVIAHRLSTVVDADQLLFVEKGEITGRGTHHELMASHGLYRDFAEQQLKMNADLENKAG

crystal structure = molecular target: the molecule itself; assay: crystal structure

| Molecule | Kd (BmrA [1]) [µM] | Kd (BmrA [2]) [µM] | binding result (crystal structure) |
| --- | --- | --- | --- |
| CC/N=c1\cc2oc3cc(NCC)c(C)cc3c(-c3ccccc3C(=O)OCC)c-2cc1C [R6G] | 3.3 ± 0.7 | 4.8 ± 0.9 | – |
| BmrA E504A mutant (Bacillus subtilis multidrug ABC exporter, homodimeric) (natural protein) MPTKKQKSKSKLKPFFALVRRTNPSYGKLAFALALSVVTTLVSLLIPLLTKQLVDGFSMSNLSGTQIGLIALVFFVQAGLSAYATYALNYNGQKIISGLRELLWKKLIKLPVSYFDTNASGETVSRVTNDTMVVKELITTHISGFITGIISVIGSLTILFIMNWKLTLLVLVVVPLAALILVPIGRKMFSISRETQDETARFTGLLNQILPEIRLVKASNAEDVEYGRGKMGISSLFKLGVREAKVQSLVGPLISLVLMAALVAVIGYGGMQVSSGELTAGALVAFILYLFQIIMPMGQITTFFTQLQKSIGATERMIEILAEEEEDTVTGKQIENAHLPIQLDRVSFGYKPDQLILKEVSAVIEAGKVTAIVGPSGGGKTTLFKLLERFYSPTAGTIRLGDEPVDTYSLESWREHIGYVSQESPLMSGTIRENICYGLERDVTDAEIEKAAEMAYALNFIKELPNQFDTEVGERGIMLSGGQRQRIAIARALLRNPSILMLDAATSSLDSQSEKSVQQALEVLMEGRTTIVIAHRLSTVVDADQLLFVEKGEITGRGTHHELMASHGLYRDFAEQQLKMNADLENKAG | – | – | binds |
